The text below walks through data of patent US9082528B2, “Method for making carbon nanotube-loaded electrode, carbon nanotube-loaded electrode made by the method, and applications thereof” (priority 2011, dated 2015).

This assay deals with acetylcholine esterase (AChE). The assay can be described thus: Electrochemical (CV) inhibition of AChE activity on AChE/ChO/POD/CNT/DEN(PtNP)s-loaded SPCGC electrode. The class given is biochemical. To be noted: for I x/Io: anodic peak current, 10 mM phosphate buffer pH 7.4 with ACh. Here is the method: AChE, ChO and POD enzymes were adsorbed on CNT/DEN(PtNP)s-loaded SPCGC electrode. The aqueous solution containing AChE/ChO/POD was dropped on the CNT/DEN(PtNP)s-loaded SPCGC surface and the adsorption was allowed to occur for 24 hours. The AChE-ChO-POD-adsorbed CNT/DEN(PtNP)s-loaded (AChE/ChO/POD/CNT/DEN(PtNP)s-loaded) SPCGC DEP chip was stored at 4° C. till use.
Electrochemical detection of a DZN compound on the AChE/ChO/POD/CNT/DEN(PtNP)s-loaded SPCGC electrode was performed on a CV (a Hokuto-Denko HZ-3000) apparatus in the potential range of −0.6 to 1 V at a scan rate of 20 mVs^−1 in a phosphate buffer solution. All the measurements were carried out at room temperature in 2 cm^3 of a test solution, which has to cover the circular working electrode area of the sensors supported vertically during the CV measurement. The anodic oxidation peak at 0.06-0.1 V was used to evaluate the inhibition of AChE activity by DZN. The enzyme inhibition was calculated according to the following equation (Equation 1) (Dounin et al., Analytica Chimica Acta 2010, 669, 63-67): % inhibition=100(Io−Ix)/Io [Equation 1], wherein Io is the anodic peak current of oxidation at 0.06-0.1 V of a control sample in the absence of DZN, while Ix refers to the peak current of DZN-containing samples.
For the electrochemical detection of DZN compound, CNT/DEN(PtNP)s hybrids at M:D 0.4:1 was fabricated onto the SPCGC electrode. Then, an AChE/ChO/POD/CNT/DEN(PtNP)s-loaded SPCGC biosensor was developed by loading 10 mm^3 of 2.21 U of AChE, 4.3 U of ChO and 44.7 U of POD on the CNT/DEN(PtNP)s-loaded SPCGC electrode. The bioactivity of the AChE/ChO/POD/CNT/DEN(PtNP)s-loaded SPCGC biosensor was investigated by CV at room temperature.
The approach for determination of one (DZN) of organophosphate pesticides by this biosensor is based on the inhibition of AChE activity. In the absence of DZN, AChE hydrolyzes Ach to acetic acid and choline (Ch) (Lin et al., Electroanalysis, 2004, 16(1-2), 145-149):
The inhibition of AChE activity by DZN was determined by measuring the oxidation or reduction current of H2O2 which is correlated to the concentration of Ch produced by AChE.
This anodic oxidation peak is attributed to the oxidation of hydrogen peroxide (H2O2) generated from the enzymatic reaction of AChE and ChO. The peak potential of H2O2 oxidation by the present electrode was lower than by an AChE/ChO/CNT electrode (0.50 V) (Lin et al., Electroanalysis, 2004, 16(1-2), 145-149). […] Meanwhile, a very small reduction peak around −0.2 V was also observed at only the first CV scan. This peak is attributed to the reduction of the generated H2O2 by POD. […] Therefore, the inhibition of AChE by DZN can be determined by the decrease in the oxidation current at 0.09 V.
The obtained currents of anodic oxidation peak were utilized to evaluate the enzyme activity, […], and the inhibition value, (Io−Ix)/Io, where Io and Ix are current densities in ACh solutions without and with DZN.

For `CCOP(=S)(OCC)Oc1cc(C)nc(C(C)C)n1` [DZN, O,O-diethyl 0-2-isopropyl-6-methyl(pyrimidine-4-yl)phosphorothioate], the “% Enzyme Activity” value is recorded as 78.6% (DZN 0.05 ppm); 59.1% (DZN 0.1 ppm); 52.5% (DZN 0.5 ppm); 17.2% (DZN 1 ppm); 23.2% (DZN 5 ppm); 13.4% (DZN 10 ppm). For the same molecule, the “% Inhibition” value (DZN 0.05 ppm) was determined as 21.4%; the “% Inhibition” value (DZN 0.1 ppm) is on record as 40.9%; the “% Inhibition” value (DZN 0.5 ppm) stood at 47.6%; the “% Inhibition” value (DZN 1 ppm) came out at 82.8%; the “% Inhibition” value (DZN 5 ppm) was 76.8%; the “% Inhibition” value (DZN 10 ppm) is recorded as 86.6%. Besides, the “[Io-Ix]/Io” value by setting is: (DZN 0.05 ppm) 0.214; (DZN 0.1 ppm) 0.409; (DZN 0.5 ppm) 0.475; (DZN 1 ppm) 0.828; (DZN 5 ppm) 0.768; (DZN 10 ppm) 0.866. Besides, the “I x/Io” value reads like this: (DZN 0.05 ppm) 0.785; (DZN 0.1 ppm) 0.590; (DZN 0.5 ppm) 0.524; (DZN 1 ppm) 0.171; (DZN 5 ppm) 0.231; (DZN 10 ppm) 0.133.
